# Laboratory results from patent US8614237B2, “Benzofuran-4,5-diones as selective peptide deformylase inhibitors” (Sloan-Kettering Institute for Cancer Research, priority 2009, dated 2013).
# Experiments:
# HsPDF [1] = target: T1, HsPDF (Homo sapiens, UniProt Q9HBH1); experiment: FP binding assay (fluorescence polarization, probe SKI 267088), specificity profiling and dose response; details: for activity toward HsPDF, FP assay: specificity profiling / dose response
# T1 construct: A 63 amino acid N-terminally truncated human peptide deformylase (HsPDF); 6His (C); made in house; host or cells: E. coli BL21 (DE3), co-transformed with the GroES/EL chaperone plasmid
# T1 sequence (Q9HBH1 64-243 limits assumed): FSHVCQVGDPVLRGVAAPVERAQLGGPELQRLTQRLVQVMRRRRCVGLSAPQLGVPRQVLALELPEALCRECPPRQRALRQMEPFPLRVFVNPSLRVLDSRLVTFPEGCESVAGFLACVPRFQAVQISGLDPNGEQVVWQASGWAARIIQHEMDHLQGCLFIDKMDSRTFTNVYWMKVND
# Experimental: Specificity profiling was performed on the newly synthesized benzofuran-4,5-diones using the aforementioned FP profiling method (Antczak et al., J. Biomol. Screen 2008, 13, 285-294).
# Compounds or high/low controls were added to the wells at a volume of 2 μL. […] High controls consisted of 1% DMSO (v/v). MBP-HsPDF or the metalloprotease to be tested was diluted in the assay buffer (25 mM Hepes, 50 mM NaCl, 0.005% Tween 20, pH 7.5), and 10 μL where added to the 384-well microplates (Low Volume Round Bottom NBS Treated, Corning) to achieve a final concentration of 1 μM. After addition of MBP-HsPDF to the tested compounds, the 384-well microplates were preincubated for one hour at room temperature. Then 8 μL of the probe SKI 267088 in solution in assay buffer was added to the wells at a final concentration of 5 nM. After one hour incubation at room temperature, the fluorescence polarization was read using the Amersham LEADseeker™ Multimodality Imaging System equipped with Cy3 excitation/emission filters and Cy3 FP epi-mirror. Quench tests were performed in duplicate by measuring the fluorescence polarization of wells containing the probe, pre- and post-addition of the compounds at 100 μM.
# In each assay, the signal inhibition induced by the compounds was expressed as a percentage compared to high and low controls located on the same plate, as defined as % Inhibition=(high control average−read value)/(high control average−low control average)×100. The dose response was assessed in duplicate and using 12 point doubling dilutions with 100 μM compound concentration as the upper limit. The dose response curve for each set of data was fitted separately, and the two IC50 values obtained were averaged.
# APN = APN %I 100uM
# Experimental: (§1) Table printed on a drawing sheet, Figure 5
# Head of the field: APN %I 100uM
# (§2) Footnotes: -26 124 % inhibition
# (§3) The patent's description of the figure: FIG. 5.
# Where the first naming reader finds the target: head: APN %I 100uM
# EcPDF [2] = tested on: EcPDF
# Experimental: Head of the field: EcPDF %I 100uM
# (§4) Specificity profiling of the derivatives of benzofuran-4,5-diones.
# Where the first naming reader finds the target: head: EcPDF %I 100uM
# [3] = In vivo toxicity of benzofuran-4,5-diones; details: i.p. twice a day for four days, 1 to 10 mg/kg, monitored 14 days
# Experimental: Lead compound SKC-BF-13 and another newly synthesized derivative SKC-BF-02 were selected in order to assess the in vivo toxicity of benzofuran-4,5-diones. Three mice per group were treated with BF-13 at three doses (i.e., 1, 5 and 10 mg/kg) or with SKC-BF-02 at two doses (i.e., 1 and 10 mg/kg). A control group of two mice were treated with the vehicle (i.e., 20% DMSO v/v). Mice were treated twice a day for four days via intraperitoneal administration. Their weight was monitored along with any other signs of toxicity for fourteen days.
# ICR/SCID male mice about three weeks old were used in this study. Three mice per group were treated with BF-13 at three doses (i.e., 1, 5 and 10 mg/kg) or with SKC-BF-02 at two doses (i.e., 1 and 10 mg/kg). A control group of two mice were treated with the vehicle (20% DMSO v/v). Mice were treated twice a day for four days via intraperitoneal administration. Their weight was monitored as well as any other sign of toxicity for 14 days.
# SKI 396848 (SKC-BF-12) and SKI 396840 (SKC-BF-02) were synthesized during the first round of exploratory chemistry to assess the in vivo toxicity of benzofuran-4,5-diones (as shown in FIG. 8). Three ICR/SCID male mice per group were treated with SKI 396848 at three doses: 1, 5 and 10 mg/kg or with SKI 396840 at two doses: 1 and 10 mg/kg. A control group of two mice was treated with the vehicle (20% DMSO v/v). Mice were treated twice a day for four days i.p. Their weight was monitored as well as any other sign of toxicity for 14 days. One treated mouse per group was evaluated by a pathologist.
# HsPDF [4] = target: T2, HsPDF (Homo sapiens, UniProt Q9HBH1); experiment: HsPDF IC50
# T2 construct: A 63 amino acid N-terminally truncated human peptide deformylase (HsPDF); 6His (C); made in house; host or cells: E. coli BL21 (DE3), co-transformed with the GroES/EL chaperone plasmid
# Excerpt: Table printed on a drawing sheet, Figure 7
# Head of the field: HsPDF IC50
# The patent's description of the figure: FIG. 7. Cytotoxicity profiling for the thirty-three (33) derivatives of benzofuran-4,5-diones toward […]. The IC50 in μM for each compound toward each cell line is summarized as a heat map.
# Where the first naming reader finds the target: head: HsPDF IC50
# EcPDF [5] = tested on: EcPDF; remark: listed apart in the source
# Experimental: Head of the field: EcPDF %I 10uM
# as §4
# Where the first naming reader finds the target: head: EcPDF %I 10uM
# [6] = tested on: panel of cancer cell lines; experiment: Cytotoxicity assay (Alamar Blue), primary hits and first generation derivatives; type: cell-based, human; details: first generation, panel of nine cancer cell lines
# Experimental: Cytotoxicity assays were performed in order to profile the thirty-three newly synthesized benzofuran-4,5-dione derivatives on a panel of nine cancer cell lines. A heat map summarizes the calculated IC50s ([…]). Twelve out of thirteen derivatives potent toward HsPDF were also cytotoxic toward several cancer cell lines (FIG. 7).
# The cell lines HL-60 (human acute promyelocytic leukemia), Jurkat (human acute T cell leukemia), Molt3 (acute lymphoblastic leukemia), CWR22 (prostate carcinoma), HEK293 (human embryonic kidney), K562 (human chronic myeloid leukemia lymphoblasts), Y79 (human retinoblastoma) were obtained from the ATCC, and cultured following ATCC recommendations. The cell line NCEB-1 (human non-hodgkin lymphoma) was obtained from Dr. O'Connor (Sloan-Kettering Institute). The cell line HL-60/RV+ (a P-glycoprotein-overexpressing multi-drug resistant HL-60 variant selected by continuous exposure to vincristine) was described elsewhere (Weisburg et al., J. Biol. Chem. 1999, 274, 10877-10888). The cell line ALL-3 (acute lymphoblastic leukemia isolated from a patient treated at MSKCC and characterized as Philadelphia chromosome positive) was obtained from Dr. Mark Frattini (MSKCC). The assay used for the cytotoxicity studies is based on the dye resazurin and commercially sold as Alamar Blue (O'Brien et al., Eur. J. Biochem. 2000, 267, 5421-5426). […]
# MMP-1 = MMP-1 %I 100uM
# Experimental: as §1
# Head of the field: MMP-1 %I 100uM
# as §2, §3
# Where the first naming reader finds the target: head: MMP-1 %I 100uM
# HsPDF [7] = target: T1, HsPDF; experiment: FLUO functional assay (fluorescamine, substrate fMAHA); type: biochemical; details: 0.5 μM HsPDF, upper limit 10 μM compound
# Experimental: High controls consisted of 1% DMSO (v/v). […] The deformylation reaction mixture was incubated for one hour at room temperature. A separate set of plates containing 3 μL of fluorescamine at 1 mg/mL in 100% DMSO was prepared for the labeling step. Then, 17 μL of the reaction mixture from the original set of plates was transferred to the plates containing the fluorescamine solution for the labeling step. The readout was performed on a Perkin Elmer VICTOR^3 V™ Multi label counter, using an excitation wavelength of 355 nm, and an emission wavelength of 460 nm. […] Compounds inducing a variation of fluorescence greater than 20% were flagged as optically active compounds.
# High controls consisted of 1% DMSO (v/v). […] The deformylation reaction mixture was incubated for one hour at room temperature. A separate set of plates containing 3 μL of fluorescamine at 1 mg/mL in 100% DMSO was prepared for the labeling step. Then, 17 μL of the reaction mixture from the original set of plates was transferred to the plates containing the fluorescamine solution for the labeling step. The readout was performed on a Perkin Elmer VICTOR3 V™ Multi label counter, using an excitation wavelength of 355 nm, and an emission wavelength of 460 nm.
# [8] = tested on: panel of eight cancer cell lines; experiment: Cytotoxicity profiling of 26 second generation derivatives (Alamar Blue viability assay, nuclei count); type: cell-based, human
# Experimental: Cytotoxicity profiling for the 26 newly synthesized benzofuran-4,5-diones derivatives was performed on a panel of eight cancer cell lines.
# The cell lines HL-60 (human acute promyelocytic leukemia), Jurkat (human acute T cell leukemia), Molt3 (acute lymphoblastic leukemia), CWR22 (prostate carcinoma), K562 (human chronic myeloid leukemia lymphoblasts), and Y79 (human retinoblastoma) were obtained from the ATCC, and cultured following ATCC recommendations. The cell line HL-60/RV+ (a P-glycoprotein-overexpressing multi-drug resistant HL-60 variant selected by continuous exposure to vincristine) was described elsewhere (Weisburg J H, Roepe P D, Dzekunov S, Scheinberg D A: Intracellular pH and multidrug resistance regulate complement-mediated cytotoxicity of nucleated human cells. J Biol Chem 1999; 274:10877-10888). The cell line ALL-3 (acute lymphoblastic leukemia isolated from a patient treated at MSKCC and characterized as Philadelphia chromosome positive) was obtained from Dr. Mark Frattini (MSKCC). The viability assay we used in this study is based on the dye resazurin and commercially sold as Alamar Blue (O'Brien J, Wilson I, Orton T, Pognan F: Investigation of the Alamar Blue (resazurin) fluorescent dye for the assessment of mammalian cell cytotoxicity. Eur J Biochem 2000; 267:5421-5426). Cells were added in 45 μL medium to the pre-plated compounds in 5 μL of 1% DMSO (v/v). After 72 h incubation was added 5 μL Alamar Blue. […] Plates were then fixed and nuclei were stained using Hoechst for the nuclear count proliferation assay. Imaging for Hoechst staining of nuclei count were acquired with an IN Cell Analyzer 2000 epifluorescence automated microscope ([…]) (GE Healthcare, Piscataway, N.J.) equipped with a 4× objective, using D360/40 excitation filter (360 nm excitation peak; +/−40 nm bandpass), HQ535/50 emission filter (535 nm emission peak; +/−50 nm bandpass) and Q505LP dichroic, and exposing fields for 200 milliseconds in the blue channel. Image analysis was conducted with the IN Cell Developer 1.7 software (GE Healthcare) using custom-developed analysis modules. The analysis module used for nuclei count performs object segmentation in the blue channel to automatically define and count the number of nuclei. Data is reported as the sum of imaged nuclei.
# In addition of the Alamar Blue viability assay readout, for the adherent cell lines of this panel (CWR22 and Meso47) we performed a direct nuclei count to assess the effect of the novel derivatives on cell proliferation.
compound,measurement,setting,value
"O=C1C=Cc2occ(C(=O)c3ccccc3)c2C1=O [SKC-BF-01, 3-Benzoyl-benzofuran-4,5-dione]",IC50,"HsPDF [1]; dose response, 12 point doubling dilutions, upper limit 100 μM",59 µM
same,selectivity for HsPDF in a panel of metalloproteases,"HsPDF [1]; panel HsPDF, EcPDF, APN and MMP-1",most selective HsPDF inhibitors
same,APN %I 100uM,APN,5 %I
same,EcPDF %I 100uM,EcPDF [2],32 %I
"COc1ccc(C(=O)c2coc3c2C(=O)C(=O)C=C3)cc1 [SKC-BF-02, 3-(4-Methoxy-benzoyl)-benzofuran-4,5-dione]",signs of toxicity in vivo (weight and other signs),[3],none of the treatments induced any sign of toxicity
same,signs of toxicity in vivo (weight and other signs),[3]; listed as SKI 396840,None of the treatments were found to induce any signs of toxicity
"COc1ccc(C(=O)c2coc3c2C(=O)C(=O)C(Cl)=C3)cc1 [SKC-BF-04, 6-Chloro-3-(4-methoxybenzoyl)-benzofuran-4,5-dione]",IC50,HsPDF [4],40 µM
same,EcPDF %I 10uM,EcPDF [5],-6 %I
"O=C1C(=O)c2c(C(=O)c3ccccc3)coc2C(Cl)=C1Cl [SKC-BF-09, 3-Benzoyl-6,7-dichloro-benzofuran-4,5-dione]",IC50,HsPDF [4],45 µM
same,EcPDF %I 10uM,EcPDF [5],43 %I
"COc1ccc(C(=O)c2coc3c2C(=O)C(=O)C(Cl)=C3Cl)cc1OC [SKC-BF-10, 6,7-Dichloro-3-(3,4-dimethoxy-benzoyl)-benzofuran-4,5-dione]","activity toward HsPDF, FP assay",HsPDF [1],potent HsPDF inhibitor
same,cytotoxicity toward cancer cell lines,[6],not very active toward any cancer cell line tested
same,MMP-1 %I 100uM,MMP-1,46 %I
same,EcPDF %I 10uM,EcPDF [5],24 %I
"COc1ccc(C(=O)c2coc3c2C(=O)C(=O)c2ccccc2-3)cc1 [SKC-NF-01, 3-(4-Methoxy-benzoyl)-naphtho[1,2-b]furan-4,5-dione]","activity toward HsPDF, FP assay",HsPDF [1],inactive
same,MMP-1 %I 100uM,MMP-1,27 %I
same,APN %I 100uM,APN,22 %I
same,EcPDF %I 100uM,EcPDF [2],23 %I
same,EcPDF %I 10uM,EcPDF [5],30 %I
"O=C1C(=O)c2c(C(=O)c3ccc(C(=O)O)cc3)coc2C(Cl)=C1Cl [SKI 417519, 4-(6,7-dichloro-4,5-dioxo-4,5-dihydrobenzofuran-3-carbonyl)benzoic acid]",IC50,HsPDF [7],0.69 µM
same,"activity against the cell lines of the panel, second generation",[8],not active toward most of the cell lines tested
"O=C(O)COc1ccc(C(=O)c2coc3c2C(=O)C(=O)C(Br)=C3Br)cc1 [SKI 417520, 2-(4-(6,7-dibromo-4,5-dioxo-4,5-dihydrobenzofuran-3-carbonyl)phenoxy)acetic acid]",IC50,HsPDF [7],0.68 µM
same,"activity against the cell lines of the panel, second generation",[8],not active toward most of the cell lines tested
"O=C(O)COc1ccc(C(=O)c2coc3c2C(=O)C(=O)C(Cl)=C3Cl)cc1 [SKI 417521, 2-(4-(6,7-dichloro-4,5-dioxo-4,5-dihydrobenzofuran-3-carbonyl)phenoxy)acetic acid]",IC50,HsPDF [7],0.62 µM
same,"activity against the cell lines of the panel, second generation",[8],not active toward most of the cell lines tested
